According to US20080004282A1, “Compositions and methods for modulating gated ion channels” (PainCeptor Pharma Corporation, priority 2006, published 2008):

Tested on: chemically-induced spontaneous pain evoked by intraplantar injection of formalin
Assay: Formalin test (model of acute tonic pain)
Type: in vivo
Conditions: rat; for pain intensity as evaluated by the flinching or licking behaviors: s.c. 30 min prior to formalin injection; for ED50: sc, s.c. 30 min prior to formalin, licking and biting episodes in phase IIa, read-out: ED50, effective dose where the pain score is reduced by half
Source text: Model of Acute Tonic Pain
This example describes a procedure for the in vivo assessment of the inhibitory activity of the compounds of the present invention.
A number of well-established models of pain are described in the literature and are known to the skilled in the art (see, for example, Table 1). This example describes the use of the Formalin test.
Male Sprague-Dawley rats are housed together in groups of three animals under standard conditions with unrestricted access to food and water. All experiments are conducted according to the ethical guidelines for investigations of experimental pain in conscious animals (Zimmerman, 1983)
Assessment of formalin-induced flinching behavior in normal, uninjured rats (body weight 150-180 g) is made with the use of an Automated Nociception Analyser (University of California, San Diego, USA). Briefly, this involves placing a small C-shaped metal band (10 mm wide×27 mm long) on the hindpaw of the rat to be tested. The rats (four rats are included in each testing session) are then placed in a cylindrical plexiglass observation chamber (diameter 30.5 cm and height 15 cm) for 20 min for adaptation purposes prior to being administered drug or vehicle according to the experimental paradigm being followed. […] Rats are then returned to their separate observation chambers, each of which are in turn situated upon an enclosed detection device consisting of two electromagnetic coils designed to produce an electromagnetic field in which movement of the metal band could be detected. […] A sampling interval of 1 min is used and on the basis of the resulting response patterns 5 phases of nociceptive behaviour are identified and scored: first phase (P1; 0-5 min), interphase (Int; 6-15 min), second phase (P2; […]), phase 2A (P2A; 16-40 min) and phase 2B (P2B; 41-60 min).
Nociceptive behavior is also determined manually every 5 min by measuring the amount of time spent in each of four behavioral categories: 0, treatment of the injected hindpaw is indistinguishable from that of the contralateral paw; 1, the injected paw has little or no weight placed on it; 2, the injected paw is elevated and is not in contact with any surface; 3, the injected paw is licked, bitten, or shaken. A weighted nociceptive score, ranging from 0 to 3 is calculated by multiplying the time spent in each category by the category weight, summing these products, and dividing by the total time for each 5 min block of time. […] On the basis of the resulting response patterns, […] of nociceptive behavior are identified and scored: first phase (P1; 0-5 min), interphase (Int; 6-15 min), second phase (P2; […]), phase 2A (P2A; 16-40 min) and phase 2B (P2B; 41-60 min). […]

SMILES	pain intensity as evaluated by the flinching or licking behaviors	ED50
CCN1CCc2c(-c3ccccc3)cc(C#N)c(N)c2C1 [Compound 12, 8-Amino-2-ethyl-5-phenyl-1,2,3,4-tetrahydro-isoquinoline-7-carbonitrile]	dose-dependent reduction	4 mg/kg
CCN1CCc2c(-c3cc(Cl)ccc3OC)cc(C#N)c(N)c2C1 [Compound 44]	dose-dependent reduction	22 mg/kg
